Source: PubChem BioAssay AID248 (DTP/NCI, 2004)
“And” between values parts separate entries of the source, which are not always exact repeats. Equal values may be shown once. Inconclusive results and toxic doses are left out. No stated cut-off is given here; in the data, active means T/C of 150% or more; inactive means T/C below 125%.

Tested on: L1210 leukemia ip in BDF1 mice, survival T/C
Test: NCI In Vivo Anticancer Drug Screen. Data for tumor model L1210 Leukemia (intraperitoneal) in B6D2F1 (BDF1) mice
Settings: endpoint: mean survival time, higher = longer survival
In short: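 Tumor was transplanted into mice, which were then dosed with test compound or vehicle alone. Survival was recorded for each group, and the treated figure was expressed relative to the control figure.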

[1] = dose: 50.0 mg/kg/injection, schedule: Q01DX001 (ip), vehicle: carboxymethylcellulose (CMC)
[2] = dose: 100.0 mg/kg/injection, schedule: Q01DX001 (ip), vehicle: carboxymethylcellulose (CMC)
[3] = dose: 200.0 mg/kg/injection, schedule: Q01DX001 (ip), vehicle: carboxymethylcellulose (CMC)
[4] = dose: 400.0 mg/kg/injection, schedule: Q01DX001 (ip), vehicle: carboxymethylcellulose (CMC)
[5] = dose: 100.0 mg/kg/injection, schedule: Q01DX009 (ip), vehicle: Klucel (hydroxypropylcellulose) (HPC)
[6] = dose: 100.0 mg/kg/injection, schedule: Q04DX003 (ip), vehicle: Klucel (hydroxypropylcellulose) (HPC)
[7] = dose: 200.0 mg/kg/injection, schedule: Q01DX009 (ip), vehicle: Klucel (hydroxypropylcellulose) (HPC)
[8] = dose: 200.0 mg/kg/injection, schedule: Q04DX003 (ip), vehicle: Klucel (hydroxypropylcellulose) (HPC)
[9] = dose: 400.0 mg/kg/injection, schedule: Q01DX009 (ip), vehicle: Klucel (hydroxypropylcellulose) (HPC)
[10] = dose: 400.0 mg/kg/injection, schedule: Q04DX003 (ip), vehicle: Klucel (hydroxypropylcellulose) (HPC)
[11] = dose: 100.0 mg/kg/injection, schedule: Q04DX002 (ip), vehicle: Klucel (hydroxypropylcellulose) (HPC)
[12] = dose: 100.0 mg/kg/injection, schedule: Q01DX001 (ip), vehicle: saline
[13] = dose: 200.0 mg/kg/injection, schedule: Q01DX001 (ip), vehicle: saline
[14] = dose: 400.0 mg/kg/injection, schedule: Q01DX001 (ip), vehicle: saline
[15] = dose: 100.0 mg/kg/injection, schedule: Q04DX003 (ip), vehicle: saline
[16] = dose: 200.0 mg/kg/injection, schedule: Q04DX003 (ip), vehicle: saline
[17] = dose: 400.0 mg/kg/injection, schedule: Q04DX003 (ip), vehicle: saline
[18] = dose: 100.0 mg/kg/injection, schedule: Q04DX003 (ip), vehicle: saline with Tween-80
[19] = dose: 200.0 mg/kg/injection, schedule: Q04DX003 (ip), vehicle: saline with Tween-80
[20] = dose: 400.0 mg/kg/injection, schedule: Q04DX003 (ip), vehicle: saline with Tween-80

Measured: T/C

CNCC(N)=O
inactive: [1] 108 % of control | [2] 105 % of control | [3] 98 % of control | [4] 95 % of control

CNc1ccc(OC)cc1
inactive: dose: 100.0 mg/kg/injection, schedule: Q01DX009 (ip), vehicle: other 95 % of control | dose: 100.0 mg/kg/injection, schedule: Q04DX003 (ip), vehicle: other 101 % of control | dose: 200.0 mg/kg/injection, schedule: Q01DX009 (ip), vehicle: other 111 % of control | dose: 200.0 mg/kg/injection, schedule: Q04DX003 (ip), vehicle: other 101 % of control | dose: 400.0 mg/kg/injection, schedule: Q01DX009 (ip), vehicle: other 124 % of control | dose: 400.0 mg/kg/injection, schedule: Q04DX003 (ip), vehicle: other 104 % of control

Nc1ccc(N)nc1
inactive: [5] 98 % of control | [6] 95 % of control | [7] 98 % of control | [8] 93 % of control | [9] 94 % of control | [10] 98 % of control

N#CC(C#N)C1c2ccccc2Nc2ccccc21
inactive: dose: 12.5 mg/kg/injection, schedule: Q01DX009 (ip), vehicle: saline with Tween-80 89 % of control | dose: 25.0 mg/kg/injection, schedule: Q01DX009 (ip), vehicle: saline with Tween-80 89 % of control | dose: 50.0 mg/kg/injection, schedule: Q01DX009 (ip), vehicle: saline with Tween-80 98 % of control and 89 % of control

O=S(=O)(O)SCCCNc1ncnc2ccccc12
inactive: [2] 107 % of control | [3] 105 % of control | [4] 102 % of control

O=C(/C=C/C(=O)c1ccccc1)c1ccccc1
inactive: dose: 75.0 mg/kg/injection, schedule: Q04DX003 (ip), vehicle: Klucel (hydroxypropylcellulose) (HPC) 98 % of control | [11] 98 % of control | dose: 150.0 mg/kg/injection, schedule: Q04DX003 (ip), vehicle: Klucel (hydroxypropylcellulose) (HPC) 97 % of control | dose: 200.0 mg/kg/injection, schedule: Q04DX002 (ip), vehicle: Klucel (hydroxypropylcellulose) (HPC) 106 % of control | dose: 300.0 mg/kg/injection, schedule: Q04DX003 (ip), vehicle: Klucel (hydroxypropylcellulose) (HPC) 104 % of control

Nc1ccc(N=Nc2ccc(S(=O)(=O)Nc3nccs3)cc2)c(N)n1
inactive: [12] 102 % of control | [13] 96 % of control | [14] 88 % of control

CCCC(C)NCCOC(=O)Nc1ccccc1 (configuration not stated)
inactive: dose: 75.0 mg/kg/injection, schedule: Q01DX001 (ip), vehicle: saline 91 % of control | dose: 150.0 mg/kg/injection, schedule: Q01DX001 (ip), vehicle: saline 101 % of control

Cc1ccc(CC2=NC(C)(C)CC(C)O2)cc1 (configuration not stated)
inactive: dose: 100.0 mg/kg/injection, schedule: Q04DX002 (ip), vehicle: saline 101 % of control | dose: 200.0 mg/kg/injection, schedule: Q04DX002 (ip), vehicle: saline 93 % of control | dose: 400.0 mg/kg/injection, schedule: Q04DX002 (ip), vehicle: saline 106 % of control

Cc1ccc(C(=O)CC(Sc2ccccc2N)c2cccc([N+](=O)[O-])c2)cc1 (configuration not stated)
inactive: dose: 100.0 mg/kg/injection, schedule: Q01DX005 (ip), vehicle: Klucel (hydroxypropylcellulose) (HPC) 93 % of control | [5] 97 % of control | [11] 98 % of control | dose: 200.0 mg/kg/injection, schedule: Q01DX005 (ip), vehicle: Klucel (hydroxypropylcellulose) (HPC) 96 % of control | [7] 94 % of control | dose: 400.0 mg/kg/injection, schedule: Q01DX005 (ip), vehicle: Klucel (hydroxypropylcellulose) (HPC) 115 % of control | [9] 97 % of control | dose: 400.0 mg/kg/injection, schedule: Q04DX002 (ip), vehicle: Klucel (hydroxypropylcellulose) (HPC) 95 % of control

Clc1cccc(N=Cc2ccc3c(c2)OCO3)c1Cl
inactive: [5] 97 % of control | [7] 94 % of control | [9] 100 % of control

OC1(C2(O)c3ccccc3Oc3ccccc32)c2ccccc2Oc2ccccc21
inactive: [15] 95 % of control | [16] 95 % of control | [17] 97 % of control

N#Cc1ccccc1CCl
inactive: [1] 103 % of control | [2] 97 % of control | [3] 103 % of control | [4] 107 % of control

CNC(=O)c1c2c(nc3ccccc13)CCCC2
inactive: [12] 102 % of control | [13] 102 % of control | [14] 111 % of control

CCC(=O)OCC(C)([N+](=O)[O-])[N+](=O)[O-]
inactive: dose: 100.0 mg/kg/injection, schedule: Q01DX009 (ip), vehicle: saline with Tween-80 106 % of control | [18] 97 % of control | dose: 200.0 mg/kg/injection, schedule: Q01DX009 (ip), vehicle: saline with Tween-80 97 % of control | [19] 97 % of control | dose: 400.0 mg/kg/injection, schedule: Q01DX009 (ip), vehicle: saline with Tween-80 101 % of control | [20] 109 % of control

COC(=O)C#CCCC#CC(C)=O
inactive: dose: 18.0 mg/kg/injection, schedule: Q04DX002 (ip), vehicle: gum acacia 96 % of control | dose: 37.0 mg/kg/injection, schedule: Q04DX002 (ip), vehicle: gum acacia 107 % of control | dose: 75.0 mg/kg/injection, schedule: Q04DX002 (ip), vehicle: gum acacia 102 % of control and 104 % of control

O=C(NCCCCC(NC(=O)OCc1ccccc1)C(=O)NCCCNCCCCNCCCNC(=O)C(CCCCNC(=O)OCc1ccccc1)NC(=O)OCc1ccccc1)OCc1ccccc1 (configuration not stated)
inactive: dose: 2.5 mg/kg/injection, schedule: Q01DX Z (ip), vehicle: saline 93 % of control | dose: 5.0 mg/kg/injection, schedule: Q01DX Z (ip), vehicle: saline 96 % of control | dose: 10.0 mg/kg/injection, schedule: Q01DX Z (ip), vehicle: saline 98 % of control | dose: 20.0 mg/kg/injection, schedule: Q01DX Z (ip), vehicle: saline 96 % of control

CC(=O)OCc1ccc2ccccc2c1
inactive: [18] 101 % of control | [19] 106 % of control | [20] 101 % of control

CCN=C1N[N+]2=CCCCC2S1 (configuration not stated)
inactive: dose: 50.0 mg/kg/injection, schedule: Q04DX003 (ip), vehicle: saline 103 % of control | [15] 109 % of control

CP1(=O)CCC(=O)C1 (configuration not stated)
inactive: [15] 98 % of control | [16] 110 % of control | [17] 104 % of control

C1CCC(C2CCCC2)C1
inactive: dose: 100.0 mg/kg/injection, schedule: Q04DX002 (ip), vehicle: saline with Tween-80 100 % of control | dose: 200.0 mg/kg/injection, schedule: Q04DX002 (ip), vehicle: saline with Tween-80 89 % of control | dose: 400.0 mg/kg/injection, schedule: Q04DX002 (ip), vehicle: saline with Tween-80 110 % of control

CN(c1ccccc1)S(=O)(=O)c1cccc([N+](=O)[O-])c1
inactive: [6] 103 % of control | [8] 94 % of control | [10] 101 % of control

N#CSCC(CCCCCCCCC(=O)O)SC#N (configuration not stated)
inactive: dose: 12.5 mg/kg/injection, schedule: Q04DX002 (ip), vehicle: saline with Tween-80 91 % of control | dose: 25.0 mg/kg/injection, schedule: Q04DX002 (ip), vehicle: saline with Tween-80 100 % of control

CCCCCCCCCC(=O)N/N=C/c1ccncc1
inactive: [5] 89 % of control | [7] 103 % of control

COC(=O)[CH]([Hg][O]C(C)=O)C(OC)c1ccccc1 (configuration not stated)
inactive: dose: 3.0 mg/kg/injection, schedule: Q04DX002 (ip), vehicle: carboxymethylcellulose (CMC) 86 % of control | dose: 6.0 mg/kg/injection, schedule: Q04DX002 (ip), vehicle: carboxymethylcellulose (CMC) 93 % of control | dose: 12.5 mg/kg/injection, schedule: Q04DX002 (ip), vehicle: carboxymethylcellulose (CMC) 94 % of control | dose: 25.0 mg/kg/injection, schedule: Q04DX002 (ip), vehicle: carboxymethylcellulose (CMC) 98 % of control

Cc1cc(C)cc(-n2nnc3ccccc3c2=O)c1
inactive: [5] 102 % of control | [15] 91 % of control | [7] 98 % of control | [16] 93 % of control | [9] 101 % of control | [17] 88 % of control
